Data as given in ChEMBL document CHEMBL1201861, “Genomics of Drug Sensitity in Cancer screening data, Wellcome Trust Sanger Institute”.

Tests used:
Assay in all cases: cells
Assay type in all cases: functional, cell-based
Conditions in all cases: Homo sapiens
SK-MEL-2 = test system: SK-MEL-2;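 note: growth inhibition of human SK-MEL-2 cells measured with a cell viability assay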
Description: SANGER: Inhibition of human SK-MEL-2 cell growth in a cell viability assay.

TE-8 = test system: TE-8;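 note: growth inhibition of TE-8 cells, measured with a cell viability readout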
Description: SANGER: Inhibition of human TE-8 cell growth in a cell viability assay.

BV-173 = test system: BV-173
Description: SANGER: Inhibition of human BV-173 cell growth in a cell viability assay.

NOMO-1 = test system: NOMO-1;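 note: growth inhibition of human NOMO-1 cells measured by a cell viability assay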
Description: SANGER: Inhibition of human NOMO-1 cell growth in a cell viability assay.

PSN1 = test system: PSN1;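 note: suppression of growth of human PSN1 cells, read out by a cell viability assay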
Description: SANGER: Inhibition of human PSN1 cell growth in a cell viability assay.

HAL-01 = test system: HAL-01;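 note: growth inhibition of human HAL-01 cells, read out with a cell viability assay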
Description: SANGER: Inhibition of human HAL-01 cell growth in a cell viability assay.

NCI-H446 = test system: NCI-H446;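 note: growth inhibition of NCI-H446 cells determined by a cell viability assay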
Description: SANGER: Inhibition of human NCI-H446 cell growth in a cell viability assay.

SK-UT-1 = test system: SK-UT-1;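 note: growth inhibition of SK-UT-1 cells, measured by a cell viability assay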
Description: SANGER: Inhibition of human SK-UT-1 cell growth in a cell viability assay.

OS-RC-2 = test system: OS-RC-2;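 note: growth inhibition of human OS-RC-2 cells, measured by a cell viability assay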
Description: SANGER: Inhibition of human OS-RC-2 cell growth in a cell viability assay.

D-502MG = test system: D-502MG
Description: SANGER: Inhibition of human D-502MG cell growth in a cell viability assay.

HT = test system: HT
Description: SANGER: Inhibition of human HT cell growth in a cell viability assay.

KGN = test system: KGN;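 note: growth inhibition of KGN cells, read out with a cell viability assay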
Description: SANGER: Inhibition of human KGN cell growth in a cell viability assay.

ES7 = test system: ES7;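 note: growth inhibition of cultured human ES7 cells, read out as cell viability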
Description: SANGER: Inhibition of human ES7 cell growth in a cell viability assay.

SW872 = test system: SW872;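 note: growth inhibition of SW872 cells, read out by a viability assay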
Description: SANGER: Inhibition of human SW872 cell growth in a cell viability assay.

DMS-79 = test system: DMS-79;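 note: growth inhibition measured with a cell viability assay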
Description: SANGER: Inhibition of human DMS-79 cell growth in a cell viability assay.

HCC2218 = test system: HCC2218;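 note: cell viability assay read-out, with IC50 given as the concentration that inhibits growth of the cell line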
Description: SANGER: Inhibition of human HCC2218 cell growth in a cell viability assay.

ETK-1 = test system: ETK-1;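 note: growth inhibition of human ETK-1 cells, read out with a cell viability assay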
Description: SANGER: Inhibition of human ETK-1 cell growth in a cell viability assay.

RXF 393 = test system: RXF 393;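 note: growth inhibition of human RXF 393 cells, read out with a cell viability assay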
Description: SANGER: Inhibition of human RXF393 cell growth in a cell viability assay.

TE-5 = test system: TE-5;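 note: inhibition of cell growth, read out by a cell viability assay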
Description: SANGER: Inhibition of human TE-5 cell growth in a cell viability assay.

NOS-1 = test system: NOS-1;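 note: growth inhibition of the human NOS-1 cell line, read out with a cell viability assay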
Description: SANGER: Inhibition of human NOS-1 cell growth in a cell viability assay.

LB2241-RCC = test system: LB2241-RCC;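 note: cell viability assay measuring how strongly the cultured human renal carcinoma line is prevented from growing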
Description: SANGER: Inhibition of human LB2241-RCC cell growth in a cell viability assay.

ACN = test system: ACN;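 note: growth inhibition of the human ACN cell line, read out via cell viability testing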
Description: SANGER: Inhibition of human ACN cell growth in a cell viability assay.

K562 = test system: K562
Description: SANGER: Inhibition of human K-562 cell growth in a cell viability assay.

NCI-H1092 = test system: NCI-H1092;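 note: cell growth inhibition measured with a cell viability assay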
Description: SANGER: Inhibition of human NCI-H1092 cell growth in a cell viability assay.

NCI-H226 = test system: NCI-H226;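 note: cell viability read-out used to gauge growth inhibition of the cells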
Description: SANGER: Inhibition of human NCI-H226 cell growth in a cell viability assay.

MFM-223 = test system: MFM-223
Description: SANGER: Inhibition of human MFM-223 cell growth in a cell viability assay.

CTB-1 = test system: CTB-1
Description: SANGER: Inhibition of human CTB-1 cell growth in a cell viability assay.

CTV-1 = test system: CTV-1;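 note: growth inhibition of the cell line, read out with a cell viability assay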
Description: SANGER: Inhibition of human CTV-1 cell growth in a cell viability assay.

SW 954 = test system: SW 954;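 note: growth inhibition of SW954 human cancer cells, read out as cell viability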
Description: SANGER: Inhibition of human SW954 cell growth in a cell viability assay.

KG-1 = test system: KG-1;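 note: growth inhibition of KG-1 cells, read out by a cell viability assay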
Description: SANGER: Inhibition of human KG-1 cell growth in a cell viability assay.

LXF-289 cell line = test system: LXF-289 cell line
Description: SANGER: Inhibition of human LXF-289 cell growth in a cell viability assay.

MFH-ino = test system: MFH-ino;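 note: growth inhibition of human MFH-ino cells, read out by a cell viability assay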
Description: SANGER: Inhibition of human MFH-ino cell growth in a cell viability assay.

TE-11 = test system: TE-11;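 note: growth inhibition of human TE-11 cells, read out by a cell viability assay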
Description: SANGER: Inhibition of human TE-11 cell growth in a cell viability assay.

LU-139 = test system: LU-139
Description: SANGER: Inhibition of human LU-139 cell growth in a cell viability assay.

TE-1 = test system: TE-1;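 note: growth inhibition of the human TE-1 cell line, read out with a cell viability assay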
Description: SANGER: Inhibition of human TE-1 cell growth in a cell viability assay.

NKM-1 = test system: NKM-1;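 note: growth inhibition of NKM-1 cells, read out with a cell viability assay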
Description: SANGER: Inhibition of human NKM-1 cell growth in a cell viability assay.

BE-13 = test system: BE-13;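 note: growth inhibition of human BE-13 cells, measured with a cell viability assay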
Description: SANGER: Inhibition of human BE-13 cell growth in a cell viability assay.

IST-MEL1 = test system: IST-MEL1;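 note: growth inhibition of the cell line, read out with a cell viability assay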
Description: SANGER: Inhibition of human IST-MEL1 cell growth in a cell viability assay.

NCI-H510A = test system: NCI-H510A;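 note: growth inhibition of NCI-H510A cells, read out with a cell viability assay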
Description: SANGER: Inhibition of human NCI-H510A cell growth in a cell viability assay.

LS-513 = test system: LS-513
Description: SANGER: Inhibition of human LS-513 cell growth in a cell viability assay.

A4-Fuk = test system: A4-Fuk;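 note: growth inhibition of A4-Fuk cells, read out by a cell viability assay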
Description: SANGER: Inhibition of human A4-Fuk cell growth in a cell viability assay.

ES5 = test system: ES5;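 note: growth inhibition of human ES5 cells, read out by a cell viability assay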
Description: SANGER: Inhibition of human ES5 cell growth in a cell viability assay.

LOX IMVI = test system: LOX IMVI
Description: SANGER: Inhibition of human LOXIMVI cell growth in a cell viability assay.

CW-2 = test system: CW-2;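 note: growth inhibition of CW-2 cells, read out by a cell viability assay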
Description: SANGER: Inhibition of human CW-2 cell growth in a cell viability assay.

TE-9 = test system: TE-9;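 note: cell growth inhibition, measured with a cell viability readout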
Description: SANGER: Inhibition of human TE-9 cell growth in a cell viability assay.

VA-ES-BJ = test system: VA-ES-BJ;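 note: growth inhibition of the VA-ES-BJ cell line, read out by a cell viability assay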
Description: SANGER: Inhibition of human VA-ES-BJ cell growth in a cell viability assay.

A3-KAW = test system: A3-KAW;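 note: growth inhibition of human A3-KAW cells, read out with a cell viability assay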
Description: SANGER: Inhibition of human A3-KAW cell growth in a cell viability assay.

COLO-800 = test system: COLO-800;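 note: growth inhibition of COLO-800 cells, read out with a cell viability assay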
Description: SANGER: Inhibition of human COLO-800 cell growth in a cell viability assay.

EW-3 = test system: EW-3;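 note: cell viability assay read-out, IC50 reflects inhibition of growth of the EW-3 cells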
Description: SANGER: Inhibition of human EW-3 cell growth in a cell viability assay.

DU-4475 = test system: DU-4475
Description: SANGER: Inhibition of human DU-4475 cell growth in a cell viability assay.

MPP-89 = test system: MPP-89;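 note: growth inhibition of human MPP-89 cells, read out with a cell viability assay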
Description: SANGER: Inhibition of human MPP-89 cell growth in a cell viability assay.

LC-2-ad = test system: LC-2-ad;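 note: growth inhibition of human LC-2-ad cells, read out with a cell viability assay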
Description: SANGER: Inhibition of human LC-2-ad cell growth in a cell viability assay.

KARPAS-299 = test system: KARPAS-299
Description: SANGER: Inhibition of human KARPAS-299 cell growth in a cell viability assay.

COLO-829 = test system: COLO-829
Description: SANGER: Inhibition of human COLO-829 cell growth in a cell viability assay.

SCH = test system: SCH;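 note: growth inhibition of human SCH cells, read out in a cell viability assay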
Description: SANGER: Inhibition of human SCH cell growth in a cell viability assay.

NCI-H82 = test system: NCI-H82;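 note: growth inhibition of NCI-H82 cells, measured with a cell viability readout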
Description: SANGER: Inhibition of human NCI-H82 cell growth in a cell viability assay.

SW684 = test system: SW684;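 note: growth inhibition of human SW684 cells, measured by a cell viability assay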
Description: SANGER: Inhibition of human SW684 cell growth in a cell viability assay.

TGBC1TKB = test system: TGBC1TKB;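 note: growth inhibition of TGBC1TKB cells, read out by a cell viability assay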
Description: SANGER: Inhibition of human TGBC1TKB cell growth in a cell viability assay.

BB49-HNC = test system: BB49-HNC;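 note: cell viability assay read-out, reported as inhibition of BB49-HNC cell growth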
Description: SANGER: Inhibition of human BB49-HNC cell growth in a cell viability assay.

COLO-824 = test system: COLO-824
Description: SANGER: Inhibition of human COLO-824 cell growth in a cell viability assay.

no-10 = test system: no-10;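 note: growth inhibition of no-10 cells, read out with a cell viability assay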
Description: SANGER: Inhibition of human no-10 cell growth in a cell viability assay.

DJM-1 = test system: DJM-1;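 note: growth inhibition of human DJM-1 cells, read out by a cell viability assay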
Description: SANGER: Inhibition of human DJM-1 cell growth in a cell viability assay.

NCI-H2126 = test system: NCI-H2126;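 note: growth inhibition of the cancer cell line, determined with a cell viability readout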
Description: SANGER: Inhibition of human NCI-H2126 cell growth in a cell viability assay.

NB6 = test system: NB6
Description: SANGER: Inhibition of human NB6 cell growth in a cell viability assay.

LB771-HNC = test system: LB771-HNC
Description: SANGER: Inhibition of human LB771-HNC cell growth in a cell viability assay.

In the case of `CC[C@@]1(O)C(=O)OCc2c1cc1n(c2=O)Cc2cc3ccccc3nc2-1` [CAMPTOTHECIN], the IC50 (SK-MEL-2) is reported as 0.0548 µM, the IC50 (TE-8) is reported as 0.00417 µM and the IC50 (BV-173) is reported as 0.00238 µM. The IC50 (NOMO-1) was 0.00156 µM, the IC50 (PSN1) was 0.00307 µM and the IC50 (HAL-01) was 0.00255 µM. For the same compound, the IC50 (NCI-H446) was 0.0566 µM, the IC50 (SK-UT-1) was 0.00307 µM and the IC50 (OS-RC-2) was 0.00997 µM. It also gave an IC50 (D-502MG) of 0.0226 µM, an IC50 (HT) of 0.0297 µM and an IC50 (KGN) of 0.0106 µM. The IC50 (ES7) was 2.54e-05 µM, the IC50 (SW872) was 0.0242 µM and the IC50 (DMS-79) was 0.0318 µM. The IC50 (HCC2218) was 0.0555 µM, the IC50 (ETK-1) was 0.0349 µM and the IC50 (RXF 393) was 0.00466 µM. The IC50 (TE-5) was 0.00738 µM, the IC50 (NOS-1) was 0.0919 µM and the IC50 (LB2241-RCC) was 0.00208 µM. For the same compound, the IC50 (ACN) was 0.0857 µM, the IC50 (K562) was greater than 0.1 µM and the IC50 (NCI-H1092) was 0.0432 µM. The IC50 (NCI-H226) was 0.0225 µM, the IC50 (MFM-223) was greater than 0.1 µM and the IC50 (CTB-1) was 0.000429 µM. It also gave an IC50 (CTV-1) of 0.000905 µM, an IC50 (SW 954) of 0.0203 µM and an IC50 (KG-1) of 0.00111 µM. It also gave an IC50 (LXF-289 cell line) of 0.00705 µM, an IC50 (MFH-ino) of 0.0271 µM and an IC50 (TE-11) of 0.0163 µM. For the same compound, the IC50 (LU-139) was 0.0164 µM, the IC50 (TE-1) was 0.0351 µM and the IC50 (NKM-1) was 0.000441 µM. The IC50 (BE-13) was 0.00456 µM, the IC50 (IST-MEL1) was 0.00381 µM and the IC50 (NCI-H510A) was 0.0017 µM. It also gave an IC50 (LS-513) of 0.0194 µM, an IC50 (A4-Fuk) of 0.00175 µM and an IC50 (ES5) of 0.000774 µM. The IC50 (LOX IMVI) was 0.00372 µM, the IC50 (CW-2) was 0.0354 µM and the IC50 (TE-9) was 0.0237 µM. For the same compound, the IC50 (VA-ES-BJ) was 0.00347 µM, the IC50 (A3-KAW) was 0.00167 µM and the IC50 (COLO-800) was 0.000428 µM. It also gave an IC50 (EW-3) of 0.000319 µM, an IC50 (DU-4475) of 0.00307 µM and an IC50 (MPP-89) of 0.0272 µM. It also gave an IC50 (LC-2-ad) of 0.00281 µM, an IC50 (KARPAS-299) greater than 0.1 µM and an IC50 (COLO-829) of 0.0117 µM. It also gave an IC50 (SCH) greater than 0.1 µM, an IC50 (NCI-H82) greater than 0.1 µM and an IC50 (SW684) greater than 0.1 µM.
With `NC(=O)c1ncn([C@@H]2O[C@H](COP(=O)(O)O)[C@@H](O)[C@H]2O)c1N` the IC50 (SK-MEL-2) was greater than 2000 µM, the IC50 (TE-8) was 828 µM and the IC50 (BV-173) was 93.8 µM. The IC50 (NOMO-1) was 847 µM, the IC50 (TGBC1TKB) was 814 µM and the IC50 (PSN1) was 1950 µM. For the same compound, the IC50 (HAL-01) was 434 µM, the IC50 (NCI-H446) was greater than 2000 µM and the IC50 (BB49-HNC) was greater than 2000 µM. For the same compound, the IC50 (SK-UT-1) was greater than 2000 µM, the IC50 (OS-RC-2) was greater than 2000 µM and the IC50 (COLO-824) was 1130 µM. The IC50 (D-502MG) was greater than 2000 µM, the IC50 (HT) was 995 µM and the IC50 (no-10) was greater than 2000 µM. It also gave an IC50 (KGN) of 630 µM, an IC50 (ES7) greater than 2000 µM and an IC50 (SW872) greater than 2000 µM. For the same compound, the IC50 (DMS-79) was greater than 2000 µM, the IC50 (ETK-1) was 541 µM and the IC50 (RXF 393) was 710 µM. The IC50 (TE-5) was greater than 2000 µM, the IC50 (NOS-1) was 524 µM and the IC50 (LB2241-RCC) was 1370 µM. It also gave an IC50 (DJM-1) greater than 2000 µM, an IC50 (ACN) of 1880 µM and an IC50 (NCI-H2126) greater than 2000 µM. For the same compound, the IC50 (K562) was greater than 2000 µM, the IC50 (NCI-H1092) was 1220 µM and the IC50 (NCI-H226) was greater than 2000 µM. The IC50 (MFM-223) was 1160 µM, the IC50 (CTB-1) was 646 µM and the IC50 (CTV-1) was 266 µM. For the same compound, the IC50 (SW 954) was 412 µM, the IC50 (KG-1) was 301 µM and the IC50 (TE-11) was 587 µM. The IC50 (LU-139) was 803 µM, the IC50 (TE-1) was 207 µM and the IC50 (NKM-1) was 180 µM. It also gave an IC50 (BE-13) of 365 µM, an IC50 (IST-MEL1) greater than 2000 µM and an IC50 (NCI-H510A) greater than 2000 µM. For the same compound, the IC50 (LS-513) was greater than 2000 µM, the IC50 (A4-Fuk) was 297 µM and the IC50 (NB6) was greater than 2000 µM. It also gave an IC50 (ES5) greater than 2000 µM, an IC50 (LOX IMVI) of 929 µM and an IC50 (CW-2) greater than 2000 µM. For the same compound, the IC50 (LB771-HNC) was greater than 2000 µM, the IC50 (TE-9) was greater than 2000 µM and the IC50 (VA-ES-BJ) was 819 µM. For the same compound, the IC50 (A3-KAW) was 368 µM, the IC50 (COLO-800) was greater than 2000 µM and the IC50 (MPP-89) was greater than 2000 µM. For the same compound, the IC50 (LC-2-ad) was 1170 µM, the IC50 (KARPAS-299) was greater than 2000 µM and the IC50 (COLO-829) was greater than 2000 µM. For the same compound, the IC50 (SCH) was greater than 2000 µM, the IC50 (NCI-H82) was 993 µM and the IC50 (SW684) was 896 µM.
